Measurements published in patent US20260108533A1, “COMPOSITIONS AND METHODS FOR THE TREATMENT OF MEIBOMIAN GLAND DYSFUNCTION” (Azura Ophthalmics Ltd., priority 2019, published 2026).

Tested on: stratum corneum (SC)
Assay: Stratum corneum (SC) tape stripping, keratolytic efficacy
Assay type: in vivo
Details: for increase of SC removal: for 3-6 hours
Source text: Keratolytic efficacy of an agent is optionally assessed by examining stratum corneum (SC) tape strippings to measure the total SC protein amount removed and on the tape. The amount of skin mass on the tape is directly proportional to the amount of keratolysis. Salicylic acid is a keratolytic, while retinoic acid is known mostly for its comedolytic properties, and benzoyl peroxide is known mostly for its anti-microbial mechanism. Here, all three were examined for relative keratolytic efficacy.

Row | Compound | increase of SC removal | effectiveness in interfering with SC cohesion (After 3 hours) | keratolytic effects (tape stripping) (overall comparison)
1 | O=C(O)c1ccccc1O [salicylic acid] | about 10% | – | –
2 | CC1=C(/C=C/C(C)=C/C=C/C(C)=C/C(=O)O)C(C)(C)CCC1 [retinoic acid] | approximately 35% | – | –
3 | O=C(OOC(=O)c1ccccc1)c1ccccc1 [benzoyl peroxide] | about 10% | significantly more effective in interfering with SC cohesion than either salicylic acid or retinoic acid | comparable to that of salicylic acid and retinoic acid
